Literature values in publication PMC5131319, “Occurrence, temporal trends, and half-lives of perfluoroalkyl acids (PFAAs) in occupational workers in China” (Scientific Reports, 2016).

Details: humans; cited from earlier work

## O=S(=O)(O)C(F)(F)C(F)(F)C(F)(F)C(F)(F)F [PFBS, perfluorobutanesulfonate]
  Half-life based on serum concentrations: 26 days
